For 19 compounds, GI50 and TGI results are on record in PubChem BioAssay (NCI).

Each structure is given as a SMILES string. Several values for one entry are separate records, joined by “and”; a condition that tells them apart may be missing. Identical values can stand only once.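 96-well plates; 48 h exposure; 5 concentrations. Endpoints by linear interpolation between flanking doses. Not reached: highest tested concentration assigned. Abbreviation: GI50, concentration required for 50% inhibition of growth. TGI is the concentration that stops growth completely.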 Bounds are passed on as bounds.

What all share (experiment): NCI anticancer screen, dose series, 48 h
Assay [1] deals with CAKI-1 renal.
The test system of assay [2] is COLO 205 colon.
The subject of assay [3] is K-562 leukemia.
Assay [4] has as its system MDA-MB-231 breast.
For assay [5], the system named is NCI/ADR-RES ovarian.
Assay [6] concerns OVCAR-4 ovarian.
Assay [7] deals with SF-295 CNS.
Assay [8] has as its system SW-620 colon.
The subject of assay [9] is U251 CNS.
Assay [10] relates to CCRF-CEM leukemia.

Turning to `CCOC(=O)c1sc(NC(=O)COc2ccc(/C=C3\CCc4cc(OC)ccc4C3=O)cc2)nc1C`, the GI50 in assay [1] was 11.1 µM; in assay [2], 15.5 µM; in [3], 3.71 µM; in assay [4] it was 13.1 µM; in assay [5], 8.49 µM; in assay [6], 11.8 µM. In addition, the GI50 is 11.1 µM in [7], 11.4 µM in [8] and 8.75 µM in assay [9]. The TGI in assay [1] was 31.6 µM; in [2] it was 30 µM; in assay [3] it was more than 40.3 µM; in assay [4] it was 31.8 µM; in assay [5] it was 37.5 µM; in assay [6] it was 27.7 µM. In addition, the TGI was 23.9 µM in [7], 23.5 µM in [8] and 21.8 µM in assay [9].

As for `COc1cc(N)c(Cl)cc1C(=O)N[C@@H]1CCN(CCCOc2ccc(F)cc2)C[C@@H]1OC`, the GI50 in assay [1] was more than 100 µM; in assay [2], 54.8 µM; in assay [3], 26.3 µM; in assay [4], 60.2 µM; in assay [5], more than 100 µM; in [6] it was more than 100 µM. Besides, the values for the GI50 in assay [7], in assay [8] and in [9] were 50.3 µM, more than 100 µM and more than 100 µM, respectively. In addition, the TGI in assay [1] was more than 100 µM; in assay [2], more than 100 µM; in assay [3], 74.1 µM; in [4] it was more than 100 µM; in [5], more than 100 µM; in [6], more than 100 µM. The TGI in assay [7], in assay [8] and in assay [9] was more than 100 µM throughout.

Consider `CSC(=S)NCc1cn(C)c2ccccc12`, for which the GI50 was 20.8 µM in assay [1]; 24400 nM in assay [10]; 17.5 µM in assay [2]; 15.4 µM in assay [4]; 30 µM in [5]; 62 µM in [6]. Besides, the GI50 in assay [7] was 33.5 µM; in assay [8] it was 30.1 µM; in [9] it was 28.6 µM. In addition, the TGI in [1] is 61.3 µM; in assay [10], more than 100 µM; in assay [2], 65.9 µM; in assay [4], 44.5 µM; in [5], more than 100 µM; in assay [6], more than 100 µM. The TGI in assay [7], in assay [8] and in [9] was more than 100 µM each time.

Turning to `Cc1cc(C)nc(NC(=O)COc2ccc(Cl)cc2)c1`, the TGI in [1], in assay [2], in [3], in [4], in assay [5] and in [6] was more than 100 µM each time. Moreover, the TGI in [7], in assay [8] and in [9] was more than 100 µM each time.

Regarding `NC(=S)c1cccc(C2Nc3ccccc3O2)c1` (stereo unspecified), the TGI in [1], in [2], in assay [3], in [4], in assay [5] and in assay [6] was more than 100 µM throughout. Further, the TGI in assay [7], in assay [8] and in [9] was more than 100 µM in each case.

Regarding `N#C/C(=C/C=C/c1cccc(Cl)c1)S(=O)c1ccccc1` (stereo unspecified), the GI50 in assay [1] is 0.283 µM; in assay [10] it was 296 nM; in assay [2] it was 0.386 µM; in [3], 0.301 µM; in [4] it was 0.384 µM; in [5], 0.278 µM. In addition, the GI50 in assay [6] is 0.266 µM; in assay [7] it was 1.3 µM; in [9], 0.361 µM. The TGI in assay [1] is 1.08 µM; in assay [10], 1.21 µM; in assay [2] it was 1.31 µM; in [3], 13.2 µM; in assay [4], 1.4 µM; in [5], 0.859 µM. Moreover, the results for the TGI in assay [6], in assay [7] and in assay [9] were 1.16 µM, 2.88 µM and 1.31 µM, respectively.

On to `O=C1c2ccccc2-c2c1c1ccccc1c(=O)n2CCNCCNCCNCCNCCn1c2c(c3ccccc3c1=O)C(=O)c1ccccc1-2`, for which the GI50 in assay [1] is 0.26 µM; in assay [10] it was 125 nM; in [2], 0.597 µM; in assay [3], 0.0462 µM; in assay [4] it was 0.0846 µM; in assay [5], more than 53 µM. Also, the GI50 is 0.0405 µM in [8] and more than 100 µM in assay [9]. Besides, the TGI in assay [1] is 2.93 µM; in [10], 2.65 µM; in assay [2], 3.94 µM; in [4], 1.6 µM; in assay [5] it was 96.9 µM; in assay [8] it was 1.17 µM. The TGI in assay [9] is more than 100 µM.

Turning to `Fc1ccc(-c2ncn(C3CCNCC3)c2-c2ccnc(Oc3ccc(Cl)cc3)n2)cc1`, the GI50 is 5.49 µM in assay [1]; 3.76 µM in [2]; 4.7 µM in assay [3]; 4.46 µM in assay [4]; 6.03 µM in assay [5]; 4.15 µM in [6]. Also, the GI50 in [7] was 4.39 µM; in [8], 3.74 µM; in assay [9] it was 3.66 µM. The TGI in [1] is more than 16.7 µM; in assay [2] it was 7.31 µM; in assay [3] it was 11.2 µM; in [4] it was 8.6 µM; in [5], more than 22.7 µM; in assay [6] it was 9.69 µM. The TGI in [7] was 9.26 µM; in assay [8], 7.3 µM; in [9], 7.24 µM.

On to `O=C(O)C(Cc1ccccc1)N1C(=O)/C(=C/C(Cl)=C/c2ccc([N+](=O)[O-])cc2)SC1=S` (stereo unspecified), for which the GI50 in assay [1] was 2.28 µM; in assay [10] it was 2920 nM; in assay [2], 2.45 µM; in assay [3], 3.01 µM; in assay [4], 3.35 µM; in [5], 3.39 µM. The GI50 in assay [6] is 3.21 µM; in assay [7], 2.59 µM; in assay [9], 1.72 µM. Moreover, the TGI in assay [1] was 5.09 µM; in assay [10], more than 100 µM; in assay [2] it was 6.21 µM; in assay [3], more than 100 µM; in assay [4] it was more than 100 µM; in assay [5], more than 100 µM. Besides, the figures for the TGI in [6], in assay [7] and in assay [9] were more than 100 µM, 7.85 µM and 3.52 µM, respectively.

Regarding `CCCCC[C@H]1C/C=C2/C(=O)C=C[C@@H]2C/C=C\CCCC(=O)O1`, the GI50 in assay [10] was 106 nM; in assay [2], 0.113 µM; in assay [3], 0.136 µM; in assay [4] it was 0.212 µM; in assay [5] it was 0.181 µM; in assay [6], 0.189 µM. Moreover, the GI50 in assay [7] is 0.123 µM; in assay [8], 0.177 µM; in assay [9], 0.116 µM. Besides, the TGI in assay [10] is 5 µM; in [2] it was 0.256 µM; in assay [3], 22 µM; in assay [4], 6.39 µM; in assay [5], 1.13 µM; in [6], 5.94 µM. For the same compound, the figures for the TGI in assay [7], in assay [8] and in [9] were 0.298 µM, 1.06 µM and 0.305 µM, respectively.

For `CCOC1=C/C(=N\Nc2ccc([N+](=O)[O-])cc2)CCC1`, the TGI in assay [1] was more than 100 µM; in assay [2], 51.3 µM; in assay [3] it was more than 100 µM; in assay [4], 84.6 µM; in assay [5], more than 100 µM; in [6], more than 100 µM. The TGI in assay [7] was more than 100 µM; in assay [8], more than 100 µM; in assay [9] it was 54.1 µM.

On to `COC(=O)c1c(C(=O)O)c(-c2ccccc2)c(-c2ccccc2)c(-c2ccccc2)c1-c1ccccc1`, for which the GI50 in [1] is more than 100 µM; in assay [10], more than 100000 nM; in [2] it was more than 100 µM; in assay [3], 87 µM; in assay [4], more than 100 µM; in assay [5] it was more than 100 µM. Also, the GI50 in assay [7], in assay [8] and in assay [9] was more than 100 µM throughout. The TGI in assay [1], in assay [10], in assay [2], in assay [3], in assay [4] and in assay [5] was more than 100 µM each time. The TGI in assay [7], in [8] and in assay [9] was more than 100 µM in each case.

As for `OC(Cc1cccc2ccccc12)CN1CCC(c2ccccc2)CC1` (stereo unspecified), the TGI was determined as 24.5 µM in assay [1]; 62.6 µM in assay [10]; 25.6 µM in assay [2]; 38.1 µM in [3]; 28.4 µM in [4]; 28.5 µM in assay [5]. Further, the TGI in assay [7] came to 27.9 µM; in assay [8] it was 29.9 µM; in [9], 26.2 µM.

`COc1ccc(C(=O)Cn2c(C(=O)c3ccc(Cl)cc3)nc(-c3ccccc3)c2-c2ccccc2)cc1`: the GI50 was 31.2 µM in [1]; more than 100 µM in assay [2]; more than 100 µM in assay [3]; 44 µM in assay [4]; more than 100 µM in assay [5]; 94.2 µM in assay [6]. Also, the figures for the GI50 in [7], in assay [8] and in [9] were 91 µM, more than 100 µM and 73 µM, respectively. Moreover, the TGI in assay [1], in assay [2], in [3], in [4], in [5] and in assay [6] was more than 100 µM in each case. The TGI in [7], in assay [8] and in assay [9] was more than 100 µM throughout.

Take `CCCC(=O)Nc1cc(/C=C/C(=O)N2C[C@@H]3C[C@]34C2=CC(=O)c2[nH]cc(C)c24)n(C)c1`: the GI50 in [1] is 0.0901 µM; in assay [5], 0.946 µM; in assay [6] it was 0.18 µM; in assay [9], 0.0359 µM. Besides, the TGI is 0.571 µM and 0.529 µM in assay [1]; 0.131 µM and 0.267 µM in assay [10]; 25 µM in [3]; 1.68 µM in assay [4]; 6.38 µM and 4.77 µM in [5]; 1.43 µM and 0.474 µM in [6]. Also, the TGI in assay [7] is 25 µM; in assay [8], 25 µM; in assay [9], 3.72 µM and 13.8 µM.

With `CCCCS(=O)(=O)c1cc(Nc2ccc(O)c3c2C(=O)c2ccccc2C3=O)ccc1C`, the GI50 is more than 100 µM in assay [1]; more than 100000 nM in assay [10]; 1.68 µM in assay [4]; more than 100 µM in assay [5]; 5.77 µM in [7]; more than 100 µM in assay [8]. For the same compound, the GI50 in [9] is 35.8 µM. The TGI in assay [1], in assay [10], in assay [4], in [5], in [7] and in assay [8] was more than 100 µM each time. For the same compound, the TGI in [9] was more than 100 µM.

Regarding `CC(=O)/C(=N\N=C(N)N)c1ccccc1`, the TGI in assay [1], in assay [2], in [3], in assay [4], in assay [5] and in assay [6] was more than 100 µM in each case. For the same compound, the TGI in assay [7], in [8] and in assay [9] was more than 100 µM each time.

Regarding `C=C(CN1CCN(c2ccccn2)CC1)c1ccc(C(=O)Nc2ccccc2N)cc1`, the GI50 in assay [1] was 1.19 µM; in [2] it was 1.71 µM; in [3] it was 0.956 µM; in [4], 2.17 µM; in assay [5] it was 1.31 µM; in assay [6] it was 6.35 µM. Moreover, the GI50 in assay [7] is 1.39 µM; in [8] it was 1.71 µM; in [9], 1.48 µM. The TGI was 5.03 µM in assay [1]; 5.74 µM in assay [2]; more than 50 µM in assay [3]; more than 50 µM in assay [4]; 5.05 µM in assay [5]; more than 50 µM in [6]. Also, the TGI in assay [7] is 6.52 µM; in assay [8], more than 50 µM; in [9], more than 50 µM.

In the case of `CN1C2C=CC(=O)C1C(C#N)C2` (stereo unspecified), the TGI in assay [10] is 82.7 µM and > 100 µM; in [3], more than 100 µM; in assay [4] it was more than 100 µM; in assay [5] it was more than 100 µM; in assay [7], more than 100 µM; in assay [8], more than 100 µM. Besides, the TGI in assay [9] was more than 100 µM. For the same compound, the figures for the GI50 in assay [4] and in assay [9] were more than 100 µM and 23.6 µM, respectively.
